Legend:
[1] = Solubility in cyclohexanone at 25° C.; type: physicochemical
[2] = Thermal stability of polymer film (ΔEab before and after hard baking at 200° C. for 1 hour); type: physicochemical; settings: dye in acrylic resin film, baked at 200° C. under air for 1 hour; smaller ΔEab = better heat resistance
Experimental: The obtained dry film was baked at 200° C. under air for 1 hour to evaluate heat resistance. Optical performance measured by the difference between chromaticity coordinates of before and after baking (ΔEab value) was 4.9. A smaller ΔEab value indicates better heat resistance.
The wet films after spin coating are dried in oven at 80° C. for 30 minutes and then soft baked at 150° C. for 15 minutes. The chromaticity coordinates (L, a, b) are recorded with UltraScan Pro (Hunterlab) colorimeter. D65 light source is used and results are based on CIE Lab coordinates. After that the films are hard baked at target temperature (200° C.) for lhour and the new chromaticity coordinates (L′, a′, b′) are recorded with the method above. The thermal stability is indicated by the difference of chromaticity coordinate before and after hard baking represented by the following formula;
ΔE=√{square root over ((L−L′^2+(a−a′)^2+(b−b′)^2)}{square root over ((L−L′^2+(a−a′)^2+(b−b′)^2)}.

Structure (SMILES)	Solubility in cyclohexanone at 25° C. (wt %) [1]	Thermal stability at 200° C. (ΔEab) [2]
CC1=NN(c2ccccc2)C(=O)C1/N=N/c1ccccc1 (stereo not drawn) [Example 2, C.I. solvent yellow 16]	6.4 wt %	43
Cc1ccccc1/N=N/c1ccc(/N=N/c2c(O)ccc3ccccc23)c(C)c1 [Example 3, C.I. solvent red 24]	4.3 wt %	15
Oc1ccc2ccccc2c1/N=N/c1ccccc1 [Example 4, C.I. solvent yellow 14]	6.4 wt %	64
